According to patent publication US20240307409A1, “ARGININE METHYLTRANSFERASE INHIBITOR AND USE THEREOF” (Cytosinlab Therapeutics Co., Ltd., priority 2021, published 2024):

Assays:
[1] = biological target: PRMT1 (Homo sapiens, UniProt Q99873); assay: PRMT1 enzyme activity test; assay type: biochemical; settings: 0.5 nM PRMT1, 3H-SAM, peptide
Protocol: PRMT1 enzyme activity test were performed in a buffer prepared on the same day 5 consisting of 10 mMTirs-HCl (pH=8.0), 0.01% Tween-20 and 1 mM DTT. The compounds were prepared to the highest inhibitor concentration ultimately required in the 100× reaction with 100% DMSO and then transferred to one well of a 384-well Echo plate (Echo-eligible 384-well polypropylene microplates 2.0, transparent, flat-bottomed) and sequentially diluted in the next well with a 3-fold dilution of 100% DMSO, and so on, with a total of 10 concentrations based on Precision. 100% DMSO was added to two empty wells to serve as control well without compound and control well without enzyme in the same 384-well Echo plate. 250 nL of compound was transferred from each well of the 384-well Echo plate to a 384-well assay plate (384-well polypropylene storage microplate) via the Echo 550 liquid processor. For wells with compounds and control well without compound, a mixture (15 uL) containing PRMT1 enzyme was added to the 384-well assay plate. For control wells without enzyme, the mixture containing the assay buffer (15 uL) was added instead. The compounds were allowed to incubate with PRMT1 for 15 minutes at room temperature, and then a mixture containing ^3H-SAM and peptide (10 uL) was added to start the reaction (final volume=25 uL). The final concentrations of the components were as follows: 0.5 nM for PRMT1, 0.25 uM for ^3H-SAM, 0.1 uM for the peptide, and 1% DMSO. After 120 min of incubation, the assay was terminated by the addition of non-radiolabeled SAM (5 uL) to a final concentration of 125 uM, which diluted 3H-SAM to a level at which its incorporation into the peptide substrate was no longer detected. 25 μL of the reaction solution from the 384-well assay plate was then transferred to a 384-well detection plate (Streptavidin FlashPlate HTS PLUS, high volume, 384 wells). The biotinylated peptide was allowed to bind to the surface of the antibiotic protein streptavidin for at least 60 minutes at room temperature. The Flashplate was then washed three times with 0.1% Tween-20 in a BioTek plate washer. Plates were read on a microplate counter (MicroBeta2) to measure the amount of ^3H-labeled peptide bound to the surface of the detection plate, measured in counts per minute (cpm).
The raw data were copied from the Reader and the inhibition values were calculated in Excel by Equation (1), Equation (1): Inh %=(CPMmax−CPMcmpd)/(CPMmax−CPMmin)*100, wherein the Max signal was obtained from the enzyme-substrate interaction and the Min signal was obtained from the substrate. IC50 values were obtained by fitting the data through equation (2) using XLFit add-in for Excel version […]. Equation (2): Y=Bottom+(Top-Bottom)/(1+((IC50/X)[…])), wherein, Y represents inhibition percentage and X represents compound concentration.

[2] = system: Toledo cells; assay: Toledo cell proliferation inhibition assay; assay type: cell-based; settings: Homo sapiens, Toledo, 144 h; six-day assay, CellTiter-Glo
Protocol: • A. Purpose: to determine the effects of compounds on Toledo cells through a six-day cell proliferation assay. • B. Reagents and materials: • 1. Cell culture medium: RPMI 1640+10% FBS • 2. 384-well cell culture plate (Corning, item #3764) • 3. 0.4% Taipan Blue Staining Solution (Thermo Fisher, item #T10282) • 4. cell counting plate (Thermo Fisher, item #C10228) • 5. 50 ml reagent reservoir (Corning, item #4870) • 6. 50 ml conical sterile polypropylene centrifuge tube (Thermo Fisher, item #339653) • 7. Automatic cell counter (Thermo Fisher, item #AMQAX1000) • 8. CellTiter-Glo Luminescent Cell Viability Detection Reagent (Promega, item #G7572) • 9. SpectraMax i3x Multi-Mode Enzyme Labeling Instrument (Megaman Molecular Instruments, item #5024062) • C. Experimental method • 1. Resuspending the cells with a pipette. • 2. 0.4% Taipan blue staining solution and Toledo cells were mixed in equal proportion, and the cells were counted using an automatic cell counter. • 3. Toledo cells were diluted to a final concentration of 2000 cells per well and transferred to a 50 ml reagent reservoir. • 4. Diluted Toledo cells were added to a 384-well cell culture plate, 40 ul per well. • 5. The cells were shortly centrifuged and settled. • 6. The cells were incubated in a 37° C., 5% CO2 cell culture incubator. • 7. The substrate in the CellTiter-Glo Luminescent Cell Viability Detection Reagent was mixed with the solution. • 8. After six days, the 384-well cell culture plate was taken from the incubator and 20 ul of configured CellTiter-Glo reagent was added to each well. • 9. 384-well cell culture platewasmixed in an orbital shaker for 30 minutes. • 10. Signal of luminescence was detected with a SpectraMax i3x multi-mode enzyme labeling instrument.

Sequence of PRMT1 (Q99873 whole entry): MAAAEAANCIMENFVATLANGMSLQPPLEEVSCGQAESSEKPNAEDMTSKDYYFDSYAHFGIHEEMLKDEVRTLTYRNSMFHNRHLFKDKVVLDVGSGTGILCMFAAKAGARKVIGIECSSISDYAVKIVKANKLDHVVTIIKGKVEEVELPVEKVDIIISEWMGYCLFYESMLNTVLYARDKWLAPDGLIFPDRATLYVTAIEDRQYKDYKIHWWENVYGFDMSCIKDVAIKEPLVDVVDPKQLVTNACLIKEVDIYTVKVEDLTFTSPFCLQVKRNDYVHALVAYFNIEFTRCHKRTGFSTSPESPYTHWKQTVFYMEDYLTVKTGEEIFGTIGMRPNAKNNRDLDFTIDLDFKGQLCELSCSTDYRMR

Row | SMILES | IC50 [1] [nM] | IC50 [2] [nM]
1 | CNCCN(C)Cc1ccc2c(c1C1CCN(c3cccc(C)c3)CC1)CCC(=O)N2 [P155] | < 50 | < 1000
2 | CCOCC1(CC)CCN(c2cccnc2CN(C)CCNC)CC1 [P182] | < 50 | < 1000
3 | CNCCN(C)Cc1ncccc1C1CCN(c2ccncc2)CC1 [P215] | < 50 | 1000 to 5000
4 | CNCCN(C)Cc1ccc(C(C)N)cc1C1CCN(c2cccc(C)c2)CC1 (stereo not shown) [P105] | < 50 | < 1000
5 | CNCCN(C)Cc1ncccc1C1CCN(c2ccc(C(=O)NC)cc2)CC1 [P255] | < 50 | 1000 to 5000
6 | CNCCN(C)Cc1ncccc1C1CCN(c2cc(C)nc(C)n2)CC1 [P262] | < 50 | 1000 to 5000
7 | CNCCN(C)Cc1ccc(-c2cn[nH]c2)cc1C1CCc2cc(F)c(F)cc2CC1 [P135] | < 50 | < 1000
8 | CNCCN(C)Cc1ncccc1C1CCN(c2cccc(C(N)=O)c2)CC1 [P297] | < 50 | ≥ 5000
9 | CNCCN(C)Cc1ccccc1N1CCCCC1 [P033] | < 50 | 1000 to 5000
10 | CNCCN(C)Cc1ccc(C)nc1C1CCN(c2cccc(N(C)C)c2)CC1 [P099] | < 50 | 1000 to 5000
11 | CNCCN(C)Cc1ncccc1N1CCC(Nc2ccncn2)CC1 [P319] | < 50 | ≥ 5000
12 | CNCCN(C)Cc1ncccc1C1CCN(c2ccc(S(C)(=O)=O)cc2)CC1 [P284] | < 50 | 1000 to 5000
13 | CNCCN(C)Cc1ncccc1N1CCCCC1 [P177] | < 50 | 1000 to 5000
14 | CNCCN(C)Cc1ncccc1N1CCC(N2CCN(C(C)C)CC2)CC1 [P124] | ≥ 500 | 1000 to 5000
15 | CNCCN(C)Cc1ncccc1N1CCC(N2CCCCC2)CC1 [P126] | < 50 | 1000 to 5000
16 | CNCCN(C)Cc1ncccc1N1CCC(Oc2ccnc(C)n2)CC1 [P314] | < 50 | ≥ 5000
17 | CNCCN(C)Cc1ncccc1N1CCN(C(C)C)CC1 [P161] | < 50 | < 1000
18 | CNCCN(C)Cc1ncccc1C1CCN(c2cccc(CN(C)C)c2)CC1 [P092] | < 50 | < 1000
19 | CNCCN(C)Cc1ccc(C)nc1C1CCN(c2cc(C)ccc2F)CC1 [P067] | < 50 | < 1000
20 | CNCCN(C)Cc1ncccc1C1CCN(c2ccccn2)CC1 [P216] | < 50 | 1000 to 5000
21 | CCc1cccc(N2CCC(c3cc(F)ccc3CN(C)CCNC)CC2)c1 [P013] | < 50 | 1000 to 5000

Row | SMILES | IC50 [1] [nM] | IC50 [2] [nM]
22 | CNCCN(C)Cc1ncccc1C1CCN(c2ccncn2)CC1 [P287] | < 50 | < 1000
23 | CNCCN(C)Cc1ncccc1C1CCN(c2cccc(F)c2)CC1 [P102] | < 50 | < 1000
24 | CNCCN(C)Cc1ccc(F)cc1C1CCN(c2nccc(N3CCCC3)n2)CC1 [P172] | < 50 | < 1000
25 | CNCCN(C)Cc1ncccc1C1CCN(c2cccc(C(F)(F)F)c2)CC1 [P068] | < 50 | 1000 to 5000
26 | CNCCN(C)Cc1ccc(F)cc1C1CCN(c2nc(C)cc(N3CCCC3)n2)CC1 [P151] | < 50 | 1000 to 5000
27 | CNCCN(C)Cc1ncccc1N1CCc2nc(SC)nc(O)c2CC1 [P329] | 50 to 500 | ≥ 5000
28 | CNCCN(C)Cc1ccc(F)cc1C1CCN(CCc2ccccc2)CC1 [P012] | < 50 | < 1000
29 | CNCCN(C)Cc1nc(C)ccc1C1CCN(CCc2ccccc2)CC1 [P059] | < 50 | 1000 to 5000
30 | CNCCN(C)Cc1ncccc1C1CCN(c2ccnc(N)n2)CC1 [P326] | < 50 | 1000 to 5000
31 | CNCCN(C)Cc1ccc(C)nc1C1CCN(c2cc(C)cc(Cl)c2)CC1 [P058] | < 50 | < 1000
32 | CCOCc1cccc(N2CCC(c3cccnc3CN(C)CCNC)CC2)c1 [P134] | < 50 | 1000 to 5000
33 | CNCCN(C)Cc1ncccc1N1CCC(Oc2ccc(-n3ccnc3)cc2)CC1 [P259] | < 50 | 1000 to 5000
34 | CNCCN(C)Cc1ncccc1N1CCc2cnc(C)nc2CC1 [P291] | < 50 | ≥ 5000
35 | CNCCN(C)Cc1ccc(C)nc1C1CCc2cc(F)c(F)cc2CC1 [P038] | < 50 | < 1000
36 | CNCCN(C)Cc1ccc(C)nc1C1CCN(c2cc(C)cc(F)c2)CC1 [P066] | < 50 | < 1000
37 | CNCCN(C)Cc1ncccc1C1CCN(c2cc(C)nc(N)n2)CC1 [P321] | < 50 | 1000 to 5000
38 | CNCCN(C)Cc1ncccc1C1CCN(c2cnc(C#N)nc2)CC1 [P318] | < 50 | ≥ 5000
39 | CCOCC1(COCC)CCC(c2ccncc2CN(C)CCNC)CC1 [P205] | 50 to 500 | 1000 to 5000
40 | CNCCN(C)Cc1ccccc1C1CCCCC1 [P024] | < 50 | < 1000
41 | CNCCN(C)Cc1ncccc1N1CCC(Oc2cc(C)ccc2Cl)CC1 [P144] | < 50 | < 1000

Further lines, with some results ahead:

Row | IC50 [1] [nM] | SMILES | IC50 [2] [nM]
42 | < 50 | CNCCN(C)Cc1ncccc1N1CCC(Oc2cnc(C)nc2)CC1 [P313] | 1000 to 5000
43 | < 50 | CNCCN(C)Cc1ccc(C)nc1C1CCN(c2ccc(F)c(C)c2)CC1 [P065] | < 1000
44 | < 50 | CNCCN(C)Cc1ncccc1C1CCN(c2cccc(CN3CCCC3)c2)CC1 [P071] | 1000 to 5000
45 | < 50 | CNCCN(C)Cc1ncccc1C1CCN(CC(F)(F)F)CC1 [P120] | 1000 to 5000
46 | 50 to 500 | CNCCN(C)Cc1ncccc1N1CCC(COc2ccnc(C)n2)CC1 [P306] | 1000 to 5000
47 | < 50 | CNCCN(C)Cc1ccc(C)nc1N1CCN(c2cccc(C)c2)CC1 [P116] | 1000 to 5000
48 | < 50 | CCOC[C@H]1CC[C@@H](c2ccccc2CN(C)CCNC)CC1 [P048] | < 1000
49 | 50 to 500 | CNCCN(C)Cc1ncccc1C1CCN(c2cccc(C(=O)NC)c2)CC1 [P254] | ≥ 5000
50 | < 50 | CNCCN(C)Cc1ncccc1N1CCC(OCc2ccccc2)CC1 [P166] | < 1000
51 | < 50 | CNCCN(C)Cc1ncccc1C1CCN(c2cccc3c2OCC3)CC1 [P164] | 1000 to 5000
52 | ≥ 500 | CNCCN(C)Cc1ncccc1N1CCC(NC2CCOCC2)CC1 [P263] | ≥ 5000
53 | < 50 | CNCCN(C)Cc1ncccc1C1CCN(c2ccc(-c3ccncc3)cc2)CC1 [P133] | < 1000
54 | < 50 | CNCCN(C)Cc1ccc2[nH]ncc2c1N1CCc2ccccc2CC1 [P228] | < 1000
55 | < 50 | CNCCN(C)Cc1nc(C)ccc1C1CCN(CCc2ccc(C(F)(F)F)cc2)CC1 [P034] | < 1000
56 | 50 to 500 | CNCCN(C)Cc1ccc(C(=O)N(C)C)cc1C1CCN(c2cccc(C)c2)CC1 [P101] | 1000 to 5000
57 | < 50 | CNCCN(C)Cc1ncccc1C1CCN(c2ncccn2)CC1 [P290] | 1000 to 5000
58 | < 50 | CNCCN(C)Cc1ncccc1N1CCC(Oc2ccncc2)CC1 [P267] | 1000 to 5000
59 | < 50 | CNCCN(C)Cc1ncccc1N1CCC(OC(C)C)CC1 [P224] | 1000 to 5000
